According to patent US8034827B2, “Phenanthridine derivatives as bradykinin antagonists” (Richter Gegeon Nyrt., priority 2005, dated 2011):
Counter-ions that a name gives are not always drawn.

Legend:
[1] = biological target: T1, human recombinant bradykinin1 receptors (Homo sapiens, UniProt P46663); assay: Human recombinant bradykinin B1 receptor binding; conditions: CHO cell membranes, [3H]-[Des-Arg10] Kallidin radioligand
T1 construct: host or cells: CHO cells
T1 sequence (P46663 1-353): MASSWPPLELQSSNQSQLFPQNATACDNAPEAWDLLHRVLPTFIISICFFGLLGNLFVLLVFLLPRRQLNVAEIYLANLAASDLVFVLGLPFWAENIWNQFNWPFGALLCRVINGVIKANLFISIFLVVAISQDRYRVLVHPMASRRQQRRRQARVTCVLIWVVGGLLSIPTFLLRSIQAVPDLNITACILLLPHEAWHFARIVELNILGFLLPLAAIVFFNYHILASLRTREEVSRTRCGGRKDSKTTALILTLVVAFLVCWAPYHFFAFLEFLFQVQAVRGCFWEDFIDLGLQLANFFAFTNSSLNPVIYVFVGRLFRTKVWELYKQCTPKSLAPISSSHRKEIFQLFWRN
Method: Receptor Binding Assays 1. Human Recombinant Bradykinin B1 Receptor Binding
Binding assays were carried out on human recombinant bradykinin1 receptors (expressed in CHO cells) according to the Euroscreen Technical Data Sheet (Cat. No.: ES-091). 20 μg protein/tube was incubated with [3,4-prolyl-3,4-^3H(N)]-[Des-Arg^10] Kallidin as radioligand. Non specific binding was determined in the presence of 10 μM Lys-des-Arg^9-Bradykinin. The final incubation volume was 250 μl. Samples were incubated for 15 min. at 25° C. then were rapidly vacuum filtered through GF/B filters presoaked for at least 1 h in 0.5% PEI. Radioactivity was determined by liquid scintillation spectroscopy.

[2] = biological target: T2, recombinant human B1 receptors (Homo sapiens, UniProt P46663); assay: Antagonist potency by measurement of cytosolic calcium ion concentration in CHO-B1 cells (agonist LysDABK); format: cell-based; conditions: inhibition of LysDABK (EC80)-evoked [Ca2+]i elevation, fluo-4, read-out: B1 func.
T2 construct: host or cells: CHO (CHO-B1)
T2 sequence (P46663 1-353): T1 sequence (P46663 1-353)
Method: Assessment of Antagonist Potency at B1 and B2 Receptors In Vitro by Measurement of Cytosolic Calcium Ion Concentration with a Plate Reader Fluorimeter in Cells Expressing Recombinant Human B1 or B2 Receptors
Chinese hamster ovary (CHO) cells stably expressing recombinant human B1 (CHO-B1, Euroscreen) or B2 (CHO-B2, Perkin-Elmer) receptors were cultured in Dulbecco's Modified Eagle's Medium (DMEM) containing 10% Fetal Calf Serum (FCS), 100 U/ml penicillin, 0.1 mg/ml streptomycin, 0.25 μg/ml amphotericin B, 1% Minimum Essential Medium Eagle (MEM), non essential amino acid solution, 600 μg/ml G418, 1% pyruvate (for the B2 cell line). Cells were kept at 37° C. in a humidified incubator in an atmosphere of 5% CO2/95% air and were passaged 1:4 three times a week. Cells were plated at 1.5-2.5×10^4 cell/well on standard 96-well microplates, measurements of cytosolic calcium ion concentration ([Ca^2+]i) were carried out 1-2 days after cell plating.
Measurements of [Ca^2+]i were carried out on CHO-B1 and CHO-B2 cells stably expressing human B1 and B2 receptors, respectively. Cells were grown in standard 96-well microplates and before the measurement were loaded with a fluorescent Ca^2+-sensitive dye, fluo-4/AM (2 μM): after removing the culture medium the dye was added to the cells (dissolved in assay buffer: 145 mM NaCl, 5 mM KCl, 2 mM MgCl2, 2 mM CaCl2, 10 mM HEPES, 20 mM D-glucose, 2 mM probenecid, 100 μl/well) and cells were incubated at 37° C. in a humidified incubator in an atmosphere of 5% CO2/95% air for 40-120 min. To stop dye loading cells were washed twice with assay buffer. After washing, various concentrations of the test compounds (diluted in extracellular medium from a DMSO stock solution, final DMSO concentration was <0.1%) or buffer were added to each well depending on the experimental setup. After incubation at 37° C. for 20-25 min. baseline and agonist-evoked changes of [Ca^2+]i were measured column by column with a plate reader fluorimeter (Fluoroskan Ascent, Labsystems). Excitation and detection of emission was carried out from the bottom of the plate. Filters used for Fluo-4: excitation filter −485 nm, emission filter −538 nm. The whole measurement process was performed at 37° C. and was controlled by custom software. Inhibitory potency of the test compounds was assessed by measuring the reduction in the agonist-evoked [Ca^2+]i-elevation in the presence of different concentrations of the compounds. The agonists were LysDABK for CHO-B1, and bradykinin for CHO-B2 cells. Agonists were applied at an EC80 concentration, the EC80-values were derived from daily determined dose-response curves. Fluorescence data were expressed as ΔF/F (fluorescence change normalized to baseline). All treatments on a single plate were measured in multiple wells. Data from all wells with the same treatment were averaged and the average values were used for analysis. Inhibitory potency of a compound at a single concentration point was expressed as percent inhibition of the control agonist response. Sigmoidal concentration-inhibition curves were fitted to the data (derived from at least three independent experiments) and IC50-values were determined as the concentration that produces half of the maximal inhibition caused by the compound.

Ki [1] [nM] | IC50 [2] [nM] | Structure (SMILES)
> 500 | > 500 | NCc1ccc(CC(NC(=O)CC(NS(=O)(=O)c2ccc3ccccc3c2)c2ccccc2)C(=O)N2CCCC2)cc1 (racemic) [Example 70003770, (±)-N-[1-(4-aminomethyl-benzyl)-2-oxo-2-pyrrolidin-1-yl-ethyl]-3-(naphthalene-2-sulfonylamino)-3-phenyl-propionamide, reference compound]
< 100 | < 100 | O=C(CC1c2cc(F)ccc2-c2ccccc2N1S(=O)(=O)c1ccc(Cl)c(Cl)c1)NCCc1ccc(C2=NCCN2)cc1 (stereo not drawn) [Example 1, 2-[5-(3,4-Dichloro-benzenesulfonyl)-8-fluoro-5,6-dihydro-phenanthridin-6-yl]-N-{2-[4-(4,5-dihydro-1H-imidazol-2-yl)-phenyl]-ethyl}-acetamide hydrochloride]
< 100 | < 100 | O=C(CC1c2ccccc2-c2ccccc2N1S(=O)(=O)c1ccc(Cl)c(Cl)c1)NCCc1ccc(C2=NCCN2)cc1 (stereo not drawn) [Example 2, 2-[5-(3,4-Dichloro-benzenesulfonyl)-5,6-dihydro-phenanthridin-6-yl]-N-{2-[4-(4,5-dihydro-1H-imidazol-2-yl)-phenyl]-ethyl}-acetamide hydrochloride]
< 100 | < 100 | O=C(CC1c2ccccc2-c2ccccc2N1S(=O)(=O)c1ccc(Cl)c(Cl)c1)NCCN1CCN(c2ccncc2)CC1 (stereo not drawn) [Example 3]
< 100 | < 100 | O=C(CC1c2ccccc2-c2ccccc2N1S(=O)(=O)c1ccc(Cl)c(Cl)c1)N[C@H]1CC[C@H](CCN2CCCC2)CC1 (stereo partly drawn) [Example 4, trans-2-[5-(3,4-Dichloro-benzenesulfonyl)-5,6-dihydro-phenanthridin-6-yl]-N-[4-(2-pyrrolidin-1-yl-ethyl)-cyclohexyl]-acetamide]
< 100 | < 100 | O=C(CC1c2ccccc2-c2ccccc2N1S(=O)(=O)c1ccc(Cl)c(Cl)c1)N1CCC(Cc2ccc(C3=NCCN3)cc2)CC1 (stereo not drawn) [Example 5, 2-[5-(3,4-Dichloro-benzenesulfonyl)-5,6-dihydro-phenanthridin-6-yl]-1-{4-[4-(4,5-dihydro-1H-imidazol-2-yl)-benzyl]-piperidin-1-yl}-ethanone]
< 100 | < 100 | O=C(CC1c2ccccc2-c2ccccc2N1S(=O)(=O)c1ccc(Cl)c(Cl)c1)N1CCC(Cc2ccc(C3=NCCCN3)cc2)CC1 (stereo not drawn) [Example 6, 2-[5-(3,4-Dichloro-benzenesulfonyl)-5,6-dihydro-phenanthridin-6-yl]-1-{4-[4-(1,4,5,6-tetrahydro-pyrimidin-2-yl)-benzyl]-piperidin-1-yl}-ethanone]
< 100 | 100 to 500 | O=C(CC1c2ccccc2-c2ccccc2N1S(=O)(=O)c1ccc(Cl)c(Cl)c1)Nc1ccc(N2CCC(N3CCCCC3)CC2)cc1 (stereo not drawn) [Example 8, N-(4-[1,4′]Bipiperidinyl-1-yl-phenyl)-2-[5-(3,4-dichloro-benzenesulfonyl)-5,6-dihydro-phenanthridin-6-yl]-acetamide]
< 100 | < 100 | O=C(CC1c2ccccc2-c2ccccc2N1S(=O)(=O)c1ccc(Cl)c(Cl)c1)NCCCN1CCN(c2ccncc2)CC1 (stereo not drawn) [Example 9, 2-[5-(3,4-Dichloro-benzenesulfonyl)-5,6-dihydro-phenanthridin-6-yl]-N-[3-(4-pyridin-4-yl-piperazin-1-yl)-propyl]-acetamide]
< 100 | < 100 | Cc1ccc(S(=O)(=O)N2c3ccccc3-c3ccccc3C2CC(=O)NCCc2ccc(C3=NCCN3)cc2)cc1 (stereo not drawn) [Example 14, N-{2-[4-(4,5-Dihydro-1H-imidazol-2-yl)-phenyl]-ethyl}-2-[5-(toluene-4-sulfonyl)-5,6-dihydro-phenanthridin-6-yl]-acetamide hydrochloride]
< 100 | < 100 | Cc1cc(C)c(S(=O)(=O)N2c3ccccc3-c3ccccc3C2CC(=O)NCCc2ccc(C3=NCCN3)cc2)c(C)c1 (stereo not drawn) [Example 15, N-{2-[4-(4,5-Dihydro-1H-imidazol-2-yl)-phenyl]-ethyl}-2-[5-(2,4,6-trimethyl-benzenesulfonyl)-5,6-dihydro-phenanthridin-6-yl]-acetamide hydrochloride]
< 100 | < 100 | COc1ccc(S(=O)(=O)N2c3ccccc3-c3ccccc3C2CC(=O)NCCc2ccc(C3=NCCN3)cc2)cc1 (stereo not drawn) [Example 16, N-{2-[4-(4,5-Dihydro-1H-imidazol-2-yl)-phenyl]-ethyl}-2-[5-(4-methoxy-benzenesulfonyl)-5,6-dihydro-phenanthridin-6-yl]-acetamide hydrochloride]
< 100 | < 100 | COc1cccc2c1-c1ccccc1N(S(=O)(=O)c1ccc(Cl)c(Cl)c1)C2CC(=O)NCCc1ccc(C2=NCCN2)cc1 (stereo not drawn) [Example 17, 2-[5-(3,4-Dichloro-benzenesulfonyl)-10-methoxy-5,6-dihydro-phenanthridin-6-yl]-N-{2-[4-(4,5-dihydro-1H-imidazol-2-yl)-phenyl]-ethyl}-acetamide hydrochloride]
< 100 | < 100 | O=C(CC1c2cc(F)cc(F)c2-c2ccccc2N1S(=O)(=O)c1ccc(Cl)c(Cl)c1)NCCc1ccc(C2=NCCN2)cc1 (stereo not drawn) [Example 18, 2-[5-(3,4-Dichloro-benzenesulfonyl)-8,10-difluoro-5,6-dihydro-phenanthridin-6-yl]-N-{2-[4-(4,5-dihydro-1H-imidazol-2-yl)-phenyl]-ethyl}-acetamide hydrochloride]
< 100 | 100 to 500 | CC(=O)c1ccc2c(c1)C(CC(=O)NCCc1ccc(C3=NCCN3)cc1)N(S(=O)(=O)c1ccc(Cl)c(Cl)c1)c1ccccc1-2 (stereo not drawn) [Example 19, 2-[8-Acetyl-5-(3,4-dichloro-benzenesulfonyl)-5,6-dihydro-phenanthridin-6-yl]-N-{2-[4-(4,5-dihydro-1H-imidazol-2-yl)-phenyl]-ethyl}-acetamide hydrochloride]
< 100 | < 100 | N=C(N)c1ccc(CCNC(=O)CC2c3ccccc3-c3ccccc3N2S(=O)(=O)c2ccc(Cl)c(Cl)c2)cc1 (stereo not drawn) [Example 20, N-[2-(4-Carbamimidoyl-phenyl)-ethyl]-2-[5-(3,4-dichloro-benzenesulfonyl)-5,6-dihydro-phenanthridin-6-yl]-acetamide]
< 100 | < 100 | COc1cccc2c1-c1ccccc1N(S(=O)(=O)c1ccc(Cl)c(Cl)c1)C2CC(=O)N[C@H]1CC[C@H](CCN2CCCC2)CC1 (stereo partly drawn) [Example 21, trans-2-[5-(3,4-Dichloro-benzenesulfonyl)-10-methoxy-5,6-dihydro-phenanthridine-6-yl]-N-[4-(2-pyrrolidin-1-ylethyl)-cyclohexyl]-acetamide]

Structure (SMILES) | Ki [1] [nM] | IC50 [2] [nM]
CCCN1C(=O)C(NC(=O)Nc2ccc(N3CCC(N4CCCCC4)CC3)cc2)N=C(c2ccc(C)cc2)c2ccccc21 (racemic) [Example 70004387, (±)-N-[4-(1,4′-bipiperidin)-1′-yl-phenyl]-N′-[2,3-dihydro-5-(4-methyl-phenyl)-2-oxo-1-propyl-1H-1,4-benzodiazepin-3-yl]-urea, reference compound] | < 100 | 100 to 500
